Source: patent publication US20060142323A1, “Dual binding site acetylcholinesterase inhibitors for the treatment of alzheimer's disease” (priority 2002, published 2006)

What was measured:
[1] = target: T1, AChE from bovine erythrocytes (Bos taurus, UniProt P23795); test: Acetylcholinesterase (AChE) inhibition (from bovine erythrocytes), Ellman method at 30° C., Digiscan 340T; type: biochemical; details: bovine erythrocytes AChE, 30° C., 5 min preincubation; read-out: IC50 AchE
T1 construct: 0.02 units AChE (Sigma Chemical Co. from bovine erythrocytes); purchased Sigma Chemical Co; host or cells: bovine erythrocytes
T1 sequence (P23795 31-614 isoform P23795-2 limits assumed): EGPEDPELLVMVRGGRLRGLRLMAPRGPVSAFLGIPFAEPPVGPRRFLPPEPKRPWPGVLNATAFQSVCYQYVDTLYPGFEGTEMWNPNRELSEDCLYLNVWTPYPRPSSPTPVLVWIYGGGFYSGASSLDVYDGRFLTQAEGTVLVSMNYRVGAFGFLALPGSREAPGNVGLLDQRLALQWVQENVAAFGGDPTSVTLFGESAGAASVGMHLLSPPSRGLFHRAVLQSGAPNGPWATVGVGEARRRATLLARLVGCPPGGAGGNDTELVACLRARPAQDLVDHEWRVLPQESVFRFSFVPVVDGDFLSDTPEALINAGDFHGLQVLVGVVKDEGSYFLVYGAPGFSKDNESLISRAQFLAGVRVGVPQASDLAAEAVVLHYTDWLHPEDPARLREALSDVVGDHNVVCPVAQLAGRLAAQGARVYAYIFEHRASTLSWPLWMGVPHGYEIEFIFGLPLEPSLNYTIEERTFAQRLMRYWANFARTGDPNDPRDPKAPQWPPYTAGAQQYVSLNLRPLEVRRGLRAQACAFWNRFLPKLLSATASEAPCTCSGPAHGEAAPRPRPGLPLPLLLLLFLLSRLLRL
Description: Acetylcholinesterase (AChE) Inhibition (from Bovine Erythrocytes)
AChE inhibitory activity was evaluated at 30° C. by the colorimetric method reported by Ellman [Ellman, G. L.; Courtney, K. D.; Andres, B.; Featherstone, R. M. Biochem. Pharmacol. 1961, 7, 88-95]. The assay solution consisted of 0.1 M phosphate buffer pH 8, 0.3 mM 5,5′-dithiobis (2-nitrobenzoic acid) (DTNB, Ellman's reagent), 0.02 units AChE (Sigma Chemical Co. from bovine erythrocytes), and 0.5 mM acetylthiocholine iodide as the substrate of the enzymatic reaction. The compounds tested were added to the assay solution and preincubated with the enzyme for 5 min at 30° C. After that period, the substrate was added. The absorbance changes at 405 nm were recorded for 5 min with a microplate reader Digiscan 340T, the reaction rates were compared, and the percent inhibition due to the presence of test compounds was calculated. The reaction rate was calculated with, at least, triplicate measurements, and the percent inhibition due to the presence of test compound was calculated relative to the compound-free control.

[2] = target: T2, BuChE from human serum (Homo sapiens, UniProt P06276); test: Butyrylcholinesterase (BuChE) inhibition (from human serum); type: biochemical; details: human serum BuChE, 30° C., 10 min preincubation; read-out: IC50 BuChE
T2 construct: The assay solution consisted of 0.01 units BuChE from human serum; from tissue; host or cells: human serum
Description: Butyrylcholinetersae (BuChE) Inhibition (from Human Serum)
BuChE inhibitory activity was evaluated at 30° C. by the colorimetric method reported by Ellman (Ellman, G. L.; Courtney, K. D.; Andres, B.; Featherstone, R. M. Biochem. Pharmacol. 1961, 7, 88-95]. The assay solution consisted of 0.01 units BuChE from human serum, 0.1 M sodium phosphate buffer pH 8, 0.3 mM 5,5′-dithiobis (2-nitrobenzoic acid) (DTNB, Ellman's reagent), and 0.5 mM butylthiocholine iodide as the substrate of the enzymatic reaction. Enzyme activity was determined by measuring the absorbance at 405 nm during 5 minutes with a microplate reader Digiscan 340T. The tested compounds were preincubated with the enzyme for 10 minutes at 30° C. The reaction rate was calculated with, at least, triplicate measurements.

[3] = test system: human neuroblastoma cell line SH—SY5Y; test: Toxicity measurement (LDH) in SH-SY5Y cells; type: cell-based; details: 24 hours exposure
Description: The cytotoxicity effect of the molecules was tested in the human neuroblastoma cell line SH—SY5Y. These cells were cultured in 96-well plates in minimum essential medium, Han's F12 medium, supplemented with 10% fetal bovine serum, 1% glutamine and 1% penicillin/streptomycin, and grown in. a 5% CO2 humidified incubator at 37° C.
The cells were plated at 10^4 cells for each well, at least, 48 hours before the toxicity measure. Cells were exposed for 24 hours to the compounds at different concentrations (from 10^−5 to 10^−9), quantitative assessment of cell death was made by measurement of the intracellular enzyme lactate dehydrogenase (LDH) (citotoxicity detection kit, Roche). The cuantity of LDH was evaluated in a microplate reader Anthos 2010, at 492 and 620 nm. Controls were taken as 100% viability.

[4] = target: AChE peripheral site (Homo sapiens, UniProt P22303); test: Propidium competition (fluorescence); type: binding; details: 20 μM propidium iodide, AChE incubated at least 6 hours with compound
Description: Fluorescence was measured in a Fluostar optima plate reader (BMG). Measurements were carried out in 100 μl solution volume, in 96-well plates. The buffer used was 1 mM Tris/HCl, pH 8.0. […] AChE was incubated, at least 6 hours, with the molecules at different concentrations. 20 μM propidium iodide was added 10 min before fluorescence measurement.

[5] = test system: SH—SY5Y cells exposed to H2O2; test: Antioxidant activity (H2O2 exposure, LDH viability); type: cell-based, human; details: 1 hour pretreatment, 24 hours H2O2, LDH
Description: In order to evaluate if these compounds have antioxidant properties cells SH—SY5Y were exposed 24 hours to […] H2O2, previously these cells were pretreated for 1 hour with the molecules at different concentrations (from 10^−5 to 10^−9). The antioxidant activity is evaluated measuring cellular viability, using the LDH assay. Cells SH—SY5Y were cultured in 96-well plates as toxicity experiments.

T2 sequence (P06276 29-602): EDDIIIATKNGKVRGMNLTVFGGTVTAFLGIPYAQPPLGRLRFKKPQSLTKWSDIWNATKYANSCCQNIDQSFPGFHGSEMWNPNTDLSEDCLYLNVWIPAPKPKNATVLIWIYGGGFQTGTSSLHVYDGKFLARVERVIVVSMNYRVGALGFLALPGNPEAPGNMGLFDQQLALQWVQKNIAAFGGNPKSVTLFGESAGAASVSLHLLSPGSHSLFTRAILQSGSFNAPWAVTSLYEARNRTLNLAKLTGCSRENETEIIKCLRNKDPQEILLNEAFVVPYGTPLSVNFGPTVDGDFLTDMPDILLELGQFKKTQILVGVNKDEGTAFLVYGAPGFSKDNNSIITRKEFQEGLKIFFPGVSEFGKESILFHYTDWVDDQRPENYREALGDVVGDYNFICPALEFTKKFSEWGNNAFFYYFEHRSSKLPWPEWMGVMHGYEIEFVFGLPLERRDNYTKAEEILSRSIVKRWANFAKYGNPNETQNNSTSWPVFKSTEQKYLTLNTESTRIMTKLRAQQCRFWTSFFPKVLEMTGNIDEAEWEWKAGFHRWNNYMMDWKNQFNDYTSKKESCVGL
AChE peripheral site, sequence (P22303 32-614): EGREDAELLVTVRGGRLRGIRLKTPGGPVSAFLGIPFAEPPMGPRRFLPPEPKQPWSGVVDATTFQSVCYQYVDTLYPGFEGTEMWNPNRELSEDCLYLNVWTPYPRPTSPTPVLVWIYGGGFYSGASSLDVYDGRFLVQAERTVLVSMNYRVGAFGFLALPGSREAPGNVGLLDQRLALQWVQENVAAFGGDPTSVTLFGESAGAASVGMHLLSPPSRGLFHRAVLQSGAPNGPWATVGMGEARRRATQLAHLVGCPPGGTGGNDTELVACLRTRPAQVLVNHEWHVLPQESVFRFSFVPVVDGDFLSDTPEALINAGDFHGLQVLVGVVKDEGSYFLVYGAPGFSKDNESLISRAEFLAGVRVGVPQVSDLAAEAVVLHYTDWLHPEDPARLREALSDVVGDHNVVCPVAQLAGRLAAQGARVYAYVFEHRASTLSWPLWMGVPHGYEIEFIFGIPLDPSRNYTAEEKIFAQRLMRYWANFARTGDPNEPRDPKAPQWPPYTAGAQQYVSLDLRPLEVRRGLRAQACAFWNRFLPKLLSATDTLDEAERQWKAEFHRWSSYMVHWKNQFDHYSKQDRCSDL

CN(CCCNc1c2c(nc3ccccc13)CCCC2)CCCNc1c2ccccc2nc2ccccc12 [Compound 21]
IC50 [1]: 4 nM
IC50 [2]: 70 nM
Toxicity [3]: >100 µM
Propidium competition [4]: 1000 µM
Antioxidant activity [5]: 10 µM
